For this experiment, the target named is Poly [ADP-ribose] polymerase 1 (Homo sapiens, UniProt P09874). Nature of the experiment: Enzyme Assay. As to the method: Inhibition of PARP-1 enzymatic activities was measured using an HT Universal Colorimetric PARP Assay Kit (Trevigen, catalogue #4677-096-K) following the standard procedures. Serial dilutions of PARP compounds were added to appropriate wells. The compound was incubated with PARP enzyme at RT for 10 min, and the reaction was initiated by addition of the PARP substrate cocktail, Each concentration of compound was tested in triplicate wells. After 15 min reaction, the reaction was stopped, and the Strep-HRP was added into each well and incubated for 1 h at RT. After addition of TACS-Sapphire colorimetric substrate and incubated in dark for 15 min, the OD450 was read out with an EnVision instrument. IC50 values (the concentration at which 50% of the enzyme activity is inhibited) were calculated, which are determined over a range of different concentrations, normally from 10 uM to 0.1 nM.

By IC50 is commonly meant the concentration that gives 50% inhibition. High values mean a need for much substance, low ones inhibition by little substance.

Chain of Poly [ADP-ribose] polymerase 1 (P09874 whole entry): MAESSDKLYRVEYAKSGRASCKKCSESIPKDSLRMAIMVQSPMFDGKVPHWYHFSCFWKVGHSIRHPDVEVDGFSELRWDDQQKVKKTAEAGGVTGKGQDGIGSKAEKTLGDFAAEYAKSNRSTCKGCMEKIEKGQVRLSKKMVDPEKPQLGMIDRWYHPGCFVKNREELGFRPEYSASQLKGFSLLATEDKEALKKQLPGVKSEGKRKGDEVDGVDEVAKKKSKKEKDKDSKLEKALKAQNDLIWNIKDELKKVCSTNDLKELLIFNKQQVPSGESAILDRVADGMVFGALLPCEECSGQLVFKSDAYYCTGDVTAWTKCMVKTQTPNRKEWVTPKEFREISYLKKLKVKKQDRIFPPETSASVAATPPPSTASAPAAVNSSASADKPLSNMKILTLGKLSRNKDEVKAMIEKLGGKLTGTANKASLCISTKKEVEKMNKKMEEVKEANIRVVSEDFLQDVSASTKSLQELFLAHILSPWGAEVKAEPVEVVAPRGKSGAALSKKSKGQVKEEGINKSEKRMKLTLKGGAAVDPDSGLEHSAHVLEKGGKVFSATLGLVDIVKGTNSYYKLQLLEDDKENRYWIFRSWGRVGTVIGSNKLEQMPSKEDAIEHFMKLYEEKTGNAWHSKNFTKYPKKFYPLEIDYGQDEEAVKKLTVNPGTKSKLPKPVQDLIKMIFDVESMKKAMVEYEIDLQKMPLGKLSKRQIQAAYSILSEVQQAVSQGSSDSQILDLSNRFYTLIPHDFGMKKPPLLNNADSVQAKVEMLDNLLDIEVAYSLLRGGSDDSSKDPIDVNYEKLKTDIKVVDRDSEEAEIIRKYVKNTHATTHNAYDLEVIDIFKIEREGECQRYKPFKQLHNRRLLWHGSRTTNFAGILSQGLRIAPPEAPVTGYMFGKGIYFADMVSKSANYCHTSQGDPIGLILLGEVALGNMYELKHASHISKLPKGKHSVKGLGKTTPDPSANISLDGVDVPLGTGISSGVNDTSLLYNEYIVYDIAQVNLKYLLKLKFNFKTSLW

Consider `CC(C)(C)C(=O)N1CCP(=O)(c2cc(Cc3n[nH]c(=O)c4ccccc34)ccc2F)CC1` [US11248013, Example 10], for which the IC50 entry is “in the range around 550 nM”.

These data come from BindingDB's records for patent US11248013 (Rakovina Therapeutics, 2022).
